Measured values reported in article PMC11801715, “Activating PKC-ε induces HIV expression with improved tolerability” (PLOS Pathogens, 2025).
“And” between values parts separate entries of the source, which are not always exact repeats. Equal entries are not always repeated. Where two headings read alike, the source gives them in different places.

Legend:
Plasma PK in rats = assay type: in vivo, rat; details: slow IV infusion
Protocol: (§1) Wild-type male Sprague Dawley (Hsd: Sprague Dawley SD) rats (8–15 weeks old) were sourced from the Covance stock colony for conduct of in vivo studies at Covance Laboratories Inc. (Madison, Wisconsin, USA). Rats were administered a single dose of vehicle control (n = 3), or 0.1, 0.3, 1, or 3 mg/kg C-232A (n = 6), or 10 mg/kg C-233 by intravenous infusion over 30 minutes. Blood samples were collected through 24 hours postdose. Samples for PK measurement of C-232A concentration were processed to plasma and shipped to Gilead Sciences (Foster City, California, USA). Samples were analyzed at Covance Laboratories for hematology and clinical chemistry panels. At unscheduled necropsy (3 mg/kg C-232A), tissues were preserved in 10% neutral-buffered formalin, embedded in paraffin, mounted on slides, and stained with hematoxylin and eosin. Tissues were then evaluated independently (Experimental Pathology Laboratories, Inc).
Rat and rhesus plasma samples (20 µL aliquot of each) were treated with 100 µL acetonitrile containing a generic internal small-molecule standard. […] The descriptive PK parameters were analyzed using noncompartmental analysis with Phoenix WinNonlin software (version 8.2, Certara USA, Inc.). The area under the plasma concentration–time curve (AUClast) values were calculated using the linear trapezoid method.

PBMCs = assay: Cytokine induction in vitro in PBMC culture supernatants; assay type: cell-based, human; details: 24 hours
Protocol: Culture supernatants were analyzed for induction of several cytokines as shown in S3 Table, using a 10-plex MSD (Meso Scale Discovery) assay following manufacturer’s instructions. MSD Workbench 4.0 software was used for data analysis and 4-parameter logistic curve fit model was utilized to determine values of experimental samples from standard curves. Values for each cytokine (pg/mL) for a given concentration was calculated as the geometric mean of all triplicate values combined from all 5 donors.

CD69 on CD4+ T cells = assay: CD4+ T-cell activation flow cytometry (CD69); assay type: cell-based; details: Homo sapiens; CD4+ T cells from ART-suppressed people with HIV; read-out: EC50, activation of CD69 expression
Protocol: Sixteen hours post treatment with PKC agonists, cellular activation of 100,000 CD4^+ T cells, taken from the above ex vivo HIV activation cultures, was assessed using flow cytometry. Cell surface expression of CD69 was measured on CD4^+ T cells using anti-human CD3 (UCHT1), CD4 (SK3) and CD69 (FN50) antibodies and standard flow staining methods. Stained cells were acquired on the Becton Dickinson (BD) LSR Fortessa II flow cytometer and results were analyzed using FlowJo software.

PKC-η = PKC-η (Homo sapiens, UniProt P24723); assay: PKC isoform translocation in A549-tGFP cells; assay type: cell-based; design: host or cells: A549; details: for EC50: A549-tGFP cells, 60 minutes; for ε selectivity, PKC-η: EC50 of PKC-η divided by EC50 of PKC-ε
Chain of PKC-η (P24723 whole entry, canonical isoform): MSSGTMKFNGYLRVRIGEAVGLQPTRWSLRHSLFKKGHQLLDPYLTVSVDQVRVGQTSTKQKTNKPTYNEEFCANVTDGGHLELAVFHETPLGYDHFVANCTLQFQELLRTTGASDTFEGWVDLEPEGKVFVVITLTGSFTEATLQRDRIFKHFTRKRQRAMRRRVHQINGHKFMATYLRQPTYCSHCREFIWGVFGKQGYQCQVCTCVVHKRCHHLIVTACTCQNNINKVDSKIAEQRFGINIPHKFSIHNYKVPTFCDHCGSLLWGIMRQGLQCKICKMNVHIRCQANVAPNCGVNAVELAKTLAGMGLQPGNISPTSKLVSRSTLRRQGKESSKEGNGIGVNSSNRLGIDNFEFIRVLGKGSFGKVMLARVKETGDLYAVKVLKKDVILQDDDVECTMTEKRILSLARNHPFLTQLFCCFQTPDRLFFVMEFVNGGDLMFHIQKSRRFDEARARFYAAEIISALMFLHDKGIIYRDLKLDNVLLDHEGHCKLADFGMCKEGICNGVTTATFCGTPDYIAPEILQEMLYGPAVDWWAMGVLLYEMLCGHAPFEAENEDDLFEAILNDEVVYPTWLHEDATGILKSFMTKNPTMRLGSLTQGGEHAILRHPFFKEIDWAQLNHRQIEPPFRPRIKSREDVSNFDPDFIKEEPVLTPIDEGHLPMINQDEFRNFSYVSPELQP
Protocol: (§2) A description of this effort is reported elsewhere.
(§3) Cellular translocation of PKC isoforms upon activation was determined in 8 A549 cell lines, each expressing a single PKC isoform fused to tGFP (PhenoVista Biosciences). Cells were plated in 384-well plates (80 μL/well) at 10^5 cells/mL in RPMI with 10% FBS and rested overnight. PKC agonist(s) were serially diluted at 1:3 steps in DMSO and added to the cells. After 60 minutes in an incubator at 37 °C, 5% CO2, cells were stained with Hoechst-33342 and fixed with 2% paraformaldehyde for 30 minutes at 4 °C. Cells were then stained with wheat germ agglutinin conjugated to AlexaFluor647 (WGA-647) for 10 minutes at 4 °C, washed to remove excess dye and imaged with Cellomics Array Scan (Thermo Fisher) at room temperature (RT). Images were analyzed using Cellomics automated image analysis algorithm. Plasma membrane translocation was quantified using the ratio between the average fluorescence in the areas at the cell edge defined by WGA-647 and the cytoplasm region.

PKC-θ = PKC-θ (Homo sapiens, UniProt Q04759); assay: PKC isoform translocation in A549-tGFP cells; assay type: cell-based; design: host or cells: A549; details: for EC50: A549-tGFP cells, 60 minutes; for ε selectivity, PKC-θ: EC50 of PKC-θ divided by EC50 of PKC-ε
Chain of PKC-θ (Q04759 whole entry, canonical isoform): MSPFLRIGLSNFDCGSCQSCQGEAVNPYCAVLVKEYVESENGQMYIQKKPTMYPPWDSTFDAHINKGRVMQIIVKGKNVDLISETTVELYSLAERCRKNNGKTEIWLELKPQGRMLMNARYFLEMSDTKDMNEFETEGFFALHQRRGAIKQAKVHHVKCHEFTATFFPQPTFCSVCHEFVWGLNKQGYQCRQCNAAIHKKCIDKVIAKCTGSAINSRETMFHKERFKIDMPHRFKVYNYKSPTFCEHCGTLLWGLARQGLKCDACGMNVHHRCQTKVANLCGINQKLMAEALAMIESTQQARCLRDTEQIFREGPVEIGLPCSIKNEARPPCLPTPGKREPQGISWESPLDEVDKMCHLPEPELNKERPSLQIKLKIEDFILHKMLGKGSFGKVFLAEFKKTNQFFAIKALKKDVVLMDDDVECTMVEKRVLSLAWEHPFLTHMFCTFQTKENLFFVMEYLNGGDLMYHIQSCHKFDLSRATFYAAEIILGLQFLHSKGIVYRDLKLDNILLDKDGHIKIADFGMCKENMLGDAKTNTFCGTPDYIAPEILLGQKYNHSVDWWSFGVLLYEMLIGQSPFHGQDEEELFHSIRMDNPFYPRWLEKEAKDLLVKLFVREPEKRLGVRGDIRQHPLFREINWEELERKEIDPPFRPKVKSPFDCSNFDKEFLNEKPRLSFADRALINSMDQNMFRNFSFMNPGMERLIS
Protocol: as §2, §3

PKC-δ = PKC-δ (Homo sapiens, UniProt Q05655); assay: PKC isoform translocation in A549-tGFP cells; assay type: cell-based; design: host or cells: A549; details: for EC50: A549-tGFP cells, 60 minutes, read-out: EC50 for PKC-δ translocation; for ε selectivity, PKC-δ: EC50 of PKC-δ divided by EC50 of PKC-ε
Chain of PKC-δ (Q05655 whole entry, canonical isoform): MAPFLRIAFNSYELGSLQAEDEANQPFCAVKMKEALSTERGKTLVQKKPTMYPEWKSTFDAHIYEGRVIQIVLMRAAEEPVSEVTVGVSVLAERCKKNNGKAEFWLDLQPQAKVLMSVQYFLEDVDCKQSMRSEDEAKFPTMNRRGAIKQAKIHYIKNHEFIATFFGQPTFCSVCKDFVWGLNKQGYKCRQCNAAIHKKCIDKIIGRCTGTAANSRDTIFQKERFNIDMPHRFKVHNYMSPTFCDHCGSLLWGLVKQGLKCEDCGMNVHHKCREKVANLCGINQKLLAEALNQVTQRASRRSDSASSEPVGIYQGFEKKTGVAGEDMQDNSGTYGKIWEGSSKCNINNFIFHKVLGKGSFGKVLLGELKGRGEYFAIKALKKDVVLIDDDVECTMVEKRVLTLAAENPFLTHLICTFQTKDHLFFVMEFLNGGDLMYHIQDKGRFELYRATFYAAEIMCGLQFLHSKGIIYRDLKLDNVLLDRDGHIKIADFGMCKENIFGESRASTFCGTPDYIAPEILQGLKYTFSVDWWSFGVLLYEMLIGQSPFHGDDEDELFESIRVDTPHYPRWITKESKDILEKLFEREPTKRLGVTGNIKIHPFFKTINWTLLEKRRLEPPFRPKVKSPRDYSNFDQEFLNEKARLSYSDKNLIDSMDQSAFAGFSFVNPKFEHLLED
Protocol: as §2, §3

[1] = test system: latent HIV in total CD4+ T cells; assay: microbe, parasite or virus in culture; assay type: cell-based, HIV-1; details: for EC50: Human immunodeficiency virus 1, CD4+ T
Protocol: Peripheral blood mononuclear cells and CD4^+ T cells used for evaluating PKC agonist and inhibitor molecules were isolated from leukopaks of selected participants as described previously. Isolated CD4^+ T cells (5×10^6 cells/well) were added to 24-well tissue culture plates in 2.5 mL of RPMI medium containing 100 nM each of elvitegravir and efavirenz. Cells were stimulated with DMSO (vehicle control) or the indicated concentrations of PKC agonist molecules. Cells were pretreated with PKC isoform inhibitors (Selleck Chemicals) for 1 hour before addition of PKC agonist at indicated concentrations and maintained at 37 °C, 5% CO2 for 3 days. Cell supernatants from each well were analyzed using the Cobas […] system for quantification of HIV-1 RNA using the HIV-1 test v2.0 kit (Roche Diagnostics).

Sprague Dawley rats = assay: In vivo rat study: tolerability, clinical pathology, histopathology
Protocol: as §1

For `Cc1ccc(C#Cc2ccc3oc(CC(C)(C)C(=O)OCC4(CO)CC(=CCC(CC(C)C)CC(C)C)C(=O)O4)cc3c2)cc1` (stereo not shown) [C-232A], the PK plasma profile (Plasma PK in rats; 0.1, 0.3, 1, and 3 mg/kg) was “dose-dependent C-232A PK plasma profiles”, the “GM-CSF in PBMC culture supernatant” value (PBMCs; 156 nM) was 40 pg/mL and the “IFN-γ in PBMC culture supernatant” value (PBMCs; 156 nM) was 202 pg/mL. For the same compound, the “IL-1b in PBMC culture supernatant” value (PBMCs; 156 nM) was 72 pg/mL, the “IL-2 in PBMC culture supernatant” value (PBMCs; 156 nM) was 14 pg/mL and the “IL-4 in PBMC culture supernatant” value (PBMCs; 156 nM) was 0.4 pg/mL. For the same compound, the “IL-6 in PBMC culture supernatant” value (PBMCs; 156 nM) was 84 pg/mL, the “IL-8 in PBMC culture supernatant” value (PBMCs; 156 nM) was 43,224 pg/mL and the “IL-10 in PBMC culture supernatant” value (PBMCs; 156 nM) was 4.9 pg/mL. For the same compound, the “IL-12p70 in PBMC culture supernatant” value (PBMCs; 156 nM) was 7 pg/mL, the “TNF-α in PBMC culture supernatant” value (PBMCs; 156 nM) was 883 pg/mL and the “GM-CSF in PBMC culture supernatant” value (PBMCs; 625 nM) was 71 pg/mL. For the same compound, the “IFN-γ in PBMC culture supernatant” value (PBMCs; 625 nM) was 172 pg/mL, the “IL-1b in PBMC culture supernatant” value (PBMCs; 625 nM) was 125 pg/mL and the “IL-2 in PBMC culture supernatant” value (PBMCs; 625 nM) was 17 pg/mL. The “IL-4 in PBMC culture supernatant” value (PBMCs; 625 nM) was 0.6 pg/mL, the “IL-6 in PBMC culture supernatant” value (PBMCs; 625 nM) was 100 pg/mL and the “IL-8 in PBMC culture supernatant” value (PBMCs; 625 nM) was 45,964 pg/mL. The “IL-10 in PBMC culture supernatant” value (PBMCs; 625 nM) was 3.6 pg/mL, the “IL-12p70 in PBMC culture supernatant” value (PBMCs; 625 nM) was 9 pg/mL and the “TNF-α in PBMC culture supernatant” value (PBMCs; 625 nM) was 1424 pg/mL. For the same compound, the EC50 (CD69 on CD4+ T cells) was 57 nM, the EC50 (PKC-η) was 100 nM and the “ε selectivity, PKC-η” value (PKC-η) was 2. The EC50 (PKC-θ) was 176 nM and 180 nM, the “ε selectivity, PKC-θ” value (PKC-θ) was 3 and the EC50 (PKC-δ) was 714 nM and 710 nM. The “ε selectivity, PKC-δ” value (PKC-δ) was 12, the EC50 ([1]; read-out: EC50, activation of HIV expression) was 500 nM and the “rats euthanized due to severe clinical signs” value (Sprague Dawley rats; 1 mg/kg, single IV infusion) was 1 of the 6 and 1 of 6. For the same compound, the histopathology (Sprague Dawley rats; 3 mg/kg) was “thrombi associated with congestion and hemorrhage in the lung and brain”, the “outcome (moribund condition)” value (Sprague Dawley rats; 3 mg/kg, single IV infusion, n = 6) was “euthanized within 6 hours postdose” and the tolerability (Sprague Dawley rats; 0.1 and 0.3 mg/kg, single IV infusion, 6 rats) was “well tolerated”. For the same compound, the circulating platelet counts (Sprague Dawley rats; higher doses) was < 100,000 platelets/µL and the mean platelet volume (Sprague Dawley rats; higher doses) was > 15 fL.
With `Cc1ccc(C#Cc2ccc(C(=O)OCC3(CO)Cc4c(-c5ccccc5)ccnc4O3)cc2)cc1` (stereo not shown) [C-233] the PK profile (Plasma PK in rats; 1, 3, and 10 mg/kg, n = 3 male rats/group) was “Dose-dependent increases in the PK profile”, the “GM-CSF in PBMC culture supernatant” value (PBMCs; 156 nM) was 14 pg/mL and the “IFN-γ in PBMC culture supernatant” value (PBMCs; 156 nM) was 215 pg/mL. The “IL-1b in PBMC culture supernatant” value (PBMCs; 156 nM) was 42 pg/mL, the “IL-2 in PBMC culture supernatant” value (PBMCs; 156 nM) was 10 pg/mL and the “IL-4 in PBMC culture supernatant” value (PBMCs; 156 nM) was 0.3 pg/mL. The “IL-6 in PBMC culture supernatant” value (PBMCs; 156 nM) was 40 pg/mL, the “IL-8 in PBMC culture supernatant” value (PBMCs; 156 nM) was 36,739 pg/mL and the “IL-10 in PBMC culture supernatant” value (PBMCs; 156 nM) was 4 pg/mL. For the same compound, the “IL-12p70 in PBMC culture supernatant” value (PBMCs; 156 nM) was 5 pg/mL, the “TNF-α in PBMC culture supernatant” value (PBMCs; 156 nM) was 308 pg/mL and the “GM-CSF in PBMC culture supernatant” value (PBMCs; 625 nM) was 30 pg/mL. The “IFN-γ in PBMC culture supernatant” value (PBMCs; 625 nM) was 135 pg/mL, the “IL-1b in PBMC culture supernatant” value (PBMCs; 625 nM) was 60 pg/mL and the “IL-2 in PBMC culture supernatant” value (PBMCs; 625 nM) was 14 pg/mL. For the same compound, the “IL-4 in PBMC culture supernatant” value (PBMCs; 625 nM) was 0.6 pg/mL, the “IL-6 in PBMC culture supernatant” value (PBMCs; 625 nM) was 44 pg/mL and the “IL-8 in PBMC culture supernatant” value (PBMCs; 625 nM) was 45,465 pg/mL. The “IL-10 in PBMC culture supernatant” value (PBMCs; 625 nM) was 4 pg/mL, the “IL-12p70 in PBMC culture supernatant” value (PBMCs; 625 nM) was 9 pg/mL and the “TNF-α in PBMC culture supernatant” value (PBMCs; 625 nM) was 834 pg/mL. The EC50 (CD69 on CD4+ T cells) was 99 nM, the EC50 (PKC-η) was 1100 nM and the “ε selectivity, PKC-η” value (PKC-η) was 5. The EC50 (PKC-θ) was 1500 nM, the “ε selectivity, PKC-θ” value (PKC-θ) was 6 and the EC50 (PKC-δ) was 47000 nM. The “ε selectivity, PKC-δ” value (PKC-δ) was 196, the “HIV RNA Fold over DMSO Geo.mean” value ([1]; 1.1 μM (Fig 10C)) was 9.2 fold and 9 fold and the EC50 ([1]; 72 h, read-out: HIV RNA EC50) was 296 nM. The “platelets and mean platelet volume” value (Sprague Dawley rats; 10 mg/kg) was “without any significant depletion of platelets or increased mean platelet volume” and the adverse events (Sprague Dawley rats; 10 mg/kg, single IV infusion) was “no adverse events were observed”.
